In US10851073B2, “Protein tyrosine phosphatase inhibitors and methods of use thereof” (Calico Life Sciences LLC, priority 2019, dated 2020):

How the values were obtained:
[1] = target: T1, His tagged full-length PTPN1 protein (Homo sapiens, UniProt P18031); assay: Mobility shift assay (MSA) used to determine potency of PTPN1 inhibitors; format: biochemical; conditions: enzyme 0.5 nM, substrate 2 μM
T1 construct: made in house
T1 sequence (P18031 with tags, fused parts or gaps): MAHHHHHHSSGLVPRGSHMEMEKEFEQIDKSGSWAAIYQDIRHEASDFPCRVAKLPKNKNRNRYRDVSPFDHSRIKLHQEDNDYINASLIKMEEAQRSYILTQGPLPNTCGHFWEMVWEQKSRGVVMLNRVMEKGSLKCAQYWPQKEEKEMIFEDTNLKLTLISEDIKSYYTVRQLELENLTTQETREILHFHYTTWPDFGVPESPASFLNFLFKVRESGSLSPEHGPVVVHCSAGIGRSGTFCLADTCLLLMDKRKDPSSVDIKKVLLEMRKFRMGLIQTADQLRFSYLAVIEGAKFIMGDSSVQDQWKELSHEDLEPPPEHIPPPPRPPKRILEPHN
Experimental: Example 228: Mobility Shift Assay (MSA) Used to Determine Potency of PTPN1 Inhibitors
Compound activity was determined using in house His tagged full-length PTPN1 protein (SEQ ID NO: 3) in an in vitro enzymatic reaction. The enzymatic assay used to determine activity is a mobility shift assay using a LabChip EZ Reader by Caliper Life Sciences. The enzymatic reaction was carried out in assay buffer (50 mM HEPES pH 7.5, 1 mM EGTA, 10 mM EDTA, 0.01% Tween® 20, and 2 mM DTT). The compounds were dispensed on a white 384 well ProxiPlate™ (PerkinElmer Cat^# 6008289) plate using a Labcyte Echo® liquid handler at varying concentrations (12 point, 1:3 dilution). The enzyme (at 0.5 nM) was incubated with compound for 10 minutes at room temperature. Then the substrate (phosphorylated insulin receptor probe sequence: ((OG488)-(NH—CH2—CH2—O—CH2—CH2—O—CH2—CO)-T-R-D-I-(PY)-E-T-D-Y-Y-R-K-K-NH2) (SEQ ID NO: 2) was added at 2 μM to the plates and incubated for another 10 minutes at room temperature. Finally, a quench solution (water and 4-bromo-3-(2-oxo-2-propoxyethoxy)-5-(3-{[1-(phenylmethanesulfonyl)piperidin-4-yl]amino}phenyl)thiophene-2-carboxylic acid) was added to the plates, which were then run on the EZ Reader (excitation 488 nm, emission 530 nm) to measure % conversion (the amount of phosphorylated substrate which was de-phosphorylated by PTPN1). […] The % inhibition was then used to calculate the IC50 values.

[2] = target: T2, His tagged PTPN2 (TC45) protein (Homo sapiens, UniProt P17706); assay: Mobility shift assay used to determine potency of PTPN2 inhibitors; format: biochemical; conditions: enzyme 0.5 nM, substrate 2 μM; read-out: PTPN2 MSA IC50
T2 construct: made in house
T2 sequence (P17706 with tags, fused parts or gaps isoform P17706-2): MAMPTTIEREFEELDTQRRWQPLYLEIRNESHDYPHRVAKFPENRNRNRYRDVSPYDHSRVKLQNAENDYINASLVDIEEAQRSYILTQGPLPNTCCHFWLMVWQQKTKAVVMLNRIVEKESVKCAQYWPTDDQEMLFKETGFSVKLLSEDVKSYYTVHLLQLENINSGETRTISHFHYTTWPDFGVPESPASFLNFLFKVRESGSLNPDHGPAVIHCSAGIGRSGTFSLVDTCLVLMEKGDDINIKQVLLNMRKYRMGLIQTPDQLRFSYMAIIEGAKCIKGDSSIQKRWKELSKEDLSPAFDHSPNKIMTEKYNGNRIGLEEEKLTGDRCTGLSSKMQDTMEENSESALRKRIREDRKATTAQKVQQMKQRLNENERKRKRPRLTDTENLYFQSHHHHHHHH
Experimental: Example 227: Mobility Shift Assay Used to Determine Potency of PTPN2 Inhibitors
Compound activity was determined using in house His tagged PTPN2 (TC45) protein (SEQ ID NO: 1) in an in vitro enzymatic reaction. The enzymatic assay used to determine activity was a mobility shift assay using a LabChip EZ Reader by Caliper Life Sciences. The enzymatic reaction was carried out in assay buffer (50 mM HEPES pH 7.5, 1 mM EGTA, 10 mM EDTA, 0.01% Tween® 20, and 2 mM DTT). The compounds were dispensed on a white 384 well ProxiPlate™ (PerkinElmer Catalog #6008289) plate using the Labcyte Echo at varying concentrations (12 point, 1:3 dilution). The enzyme (at 0.5 nM) was incubated with compound for 10 minutes at room temperature. Then the substrate (phosphorylated insulin receptor probe sequence: ((OG488)-(NH—CH2—CH2—O—CH2—CH2—O—CH2—CO)-T-R-D-I-(PY)-E-T-D-Y-Y-R-K-K-NH2) (SEQ ID NO: 2) was added at 2 μM to the plates and incubated for another 10 minutes at room temperature. Finally, a quench solution (water and 4-bromo-3-(2-oxo-2-propoxyethoxy)-5-(3-{[1-(phenylmethanesulfonyl)piperidin-4-yl]amino}phenyl)thiophene-2-carboxylic acid) was added to the plates, which were then run on the EZ Reader (excitation 488 nm, emission 530 nm) to measure % conversion (the amount of phosphorylated substrate which was de-phosphorylated by PTPN2). […] The % inhibition was then used to calculate the IC50 values.

[3] = tested on: B16F10 mouse melanoma cells; assay: B16F10 IFNγ-induced cellular growth inhibition assay; format: cell-based; conditions: B16-F10, with 0.5 ng/mL IFNγ, read-out: B16F10 GI IC50
Experimental: Example 229: B16F10 IFNγ-Induced Cellular Growth Inhibition Assay B16F10 mouse melanoma cells (ATCC Cat^# CRL-6475, Manassas, Va.) were seeded at a density of 500 cells per well in a 384-well clear bottom plate (Corning Cat^#3765, Corning, N.Y.) in 25 μL total volume of DMEM+10% FBS (Sigma Cat^# D6429 and Sigma Cat^# F4135, St. Louis, Mo.). Cells were allowed to adhere overnight at 37° C.+5% CO2. On the following day, 12.5 μL of mouse IFNγ (RD systems Cat^#485-MI/CF, Minneapolis, Minn.) was added to half of the plate (columns 13-24) at a concentration of 2 ng/mL for a final assay concentration of 0.5 ng/mL of IFNγ. Media only (12.5 μL of DMEM+10% FBS) was added to the remainder of the plate (columns 1-12). Next, compounds resuspended in DMSO (Sigma Cat^# D2650) at 100 mM were diluted in semi-log dilutions in DMSO ranging from 100 mM to 0.001 mM and DMSO only controls were included. The compound/DMSO dilutions were further diluted 1:250 in DMEM+10% FBS, and 12.5 μL of these dilutions were added in triplicates to cells of both treatment arms (with and without IFNγ). Final compound concentrations ranged from 100 μM to 0.001 μM with a final DMSO concentration of 0.1%. Compounds were only dosed in the inner 240 wells, avoiding the outer 2-well perimeter of the plate to minim/ze edge effects. Finally, the plate was loaded into an IncuCyte® S3 Live Cell Analysis System (Essen Bioscience-Sartorius, Ann Arbor, Mich.) maintained in a 37° C.+5% CO2 incubator, allowed to equilibrate for 2 hours, and imaged every 6 hours for 5 days. Confluence over time for compound dilutions in the presence and absence of IFNγ was measured. Growth inhibition values were obtained when the “DMSO/no IFNγ” control reached confluence >95%. At these time points, for each compound the percent growth inhibition at every compound dose level was calculated relative to the “DMSO/with IFNγ” control and used to determine the IC50.

Compound | IC50 [1] [nM] | IC50 [2] [nM] | IC50 [3] [nM]
CC(Cc1ccc(C(C)C)cc1)CN1CCc2cc(O)c(N3CC(=O)NS3(=O)=O)c(F)c2C1 (stereo not drawn) [Compound 295, 5-(8-fluoro-6-hydroxy-2-{2-methyl-3-[4-(propan-2-yl)phenyl]propyl}-1,2,3,4-tetrahydroisoquinolin-7-yl)-1λ^6,2,5-thiadiazolidine-1,1,3-trione] | > 100 | 10 to 100 | –
O=C1CN(c2c(O)cc3c(c2F)CC(CNCCC2CCC2)C3)S(=O)(=O)N1 (stereo not drawn) [Compound 305, 5-(2-{[(2-cyclobutylethyl)amino]methyl}-4-fluoro-6-hydroxy-2,3-dihydro-1H-inden-5-yl)-1λ^6,2,5-thiadiazolidine-1,1,3-trione] | 10 to 100 | 10 to 100 | –
CC(C)(O)CCOC1CCc2c(cc(O)c(N3CC(=O)NS3(=O)=O)c2F)C1 (stereo not drawn) [Compound 309, 5-[1-fluoro-3-hydroxy-6-(3-hydroxy-3-methylbutoxy)-5,6,7,8-tetrahydronaphthalen-2-yl]-1λ^6,2,5-thiadiazolidine-1,1,3-trione] | 10 to 100 | 10 to 100 | –
NCCOC1CCc2c(cc(O)c(N3CC(=O)NS3(=O)=O)c2F)C1 (stereo not drawn) [Compound 319, 5-[6-(2-aminoethoxy)-1-fluoro-3-hydroxy-5,6,7,8-tetrahydronaphthalen-2-yl]-1λ^6,2,5-thiadiazolidine-1,1,3-trione] | > 100 | 10 to 100 | –
O=C1CN(c2c(O)cc3c(c2F)C[C@@H]([C@H]2CCNC2)CC3)S(=O)(=O)N1 (single isomer, unassigned) [Compound 138, 5-{(7RS)-1-fluoro-3-hydroxy-7-[(3SR)-pyrrolidin-3-yl]-5,6,7,8-tetrahydronaphthalen-2-yl}-1λ^6,2,5-thiadiazolidine-1,1,3-trione] | 10 to 100 | 10 to 100 | –
O=C1CN(c2c(O)cc3c(c2F)CN(CC2CC4CCC2O4)CC3)S(=O)(=O)N1 (stereo not drawn) [Compound 222, 5-{8-fluoro-6-hydroxy-2-[(7-oxabicyclo[2.2.1]heptan-2-yl)methyl]-1,2,3,4-tetrahydroisoquinolin-7-yl}-1λ^6,2,5-thiadiazolidine-1,1,3-trione] | 10 to 100 | 10 to 100 | –
CC(C)(C)OC(=O)NCCOC1CCc2c(cc(O)c(N3CC(=O)NS3(=O)=O)c2F)C1 (stereo not drawn) [Compound 316, tert-butyl (2-{[5-fluoro-7-hydroxy-6-(1,1,4-trioxo-1λ^6,2,5-thiadiazolidin-2-yl)-1,2,3,4-tetrahydronaphthalen-2-yl]oxy}ethyl)carbamate] | > 100 | 10 to 100 | –
CC(CCN1CCc2cc(O)c(N3CC(=O)NS3(=O)=O)c(F)c2C1)CC(C)(C)C (stereo not drawn) [Compound 302, 5-[8-fluoro-6-hydroxy-2-(3,5,5-trimethylhexyl)-1,2,3,4-tetrahydroisoquinolin-7-yl]-1λ^6,2,5-thiadiazolidine-1,1,3-trione] | 10 to 100 | 1 to 10 | –
O=C1CN(c2c(O)cc3c(c2F)CN(C(=O)NCC2CCOC2)CC3)S(=O)(=O)N1 (stereo not drawn) [Compound 270, 8-fluoro-6-hydroxy-N-[(oxolan-3-yl)methyl]-7-(1,1,4-trioxo-1λ^6,2,5-thiadiazolidin-2-yl)-3,4-dihydroisoquinoline-2(1H)-carboxamide] | 10 to 100 | 10 to 100 | –
CC(C)CCOC1CCc2cc(O)c(N3CC(=O)NS3(=O)=O)c(F)c2C1 (stereo not drawn) [Compound 100, 5-[1-fluoro-3-hydroxy-7-(3-methylbutoxy)-5,6,7,8-tetrahydronaphthalen-2-yl]-1λ^6,2,5-thiadiazolidine-1,1,3-trione] | 1 to 10 | 10 to 100 | –
Cc1noc(C)c1CCNC1CCc2cc(O)c(N3CC(=O)NS3(=O)=O)c(F)c2C1 (stereo not drawn) [Compound 290, 5-(7-{[2-(3,5-dimethyl-1,2-oxazol-4-yl)ethyl]amino}-1-fluoro-3-hydroxy-5,6,7,8-tetrahydronaphthalen-2-yl)-1λ^6,2,5-thiadiazolidine-1,1,3-trione] | 1 to 10 | 1 to 10 | –
O=C1CN(c2c(O)cc3c(c2F)CCC(NCC2CC2)C3)S(=O)(=O)N1 (stereo not drawn) [Compound 318, 5-{6-[(cyclopropylmethyl)amino]-1-fluoro-3-hydroxy-5,6,7,8-tetrahydronaphthalen-2-yl}-1λ^6,2,5-thiadiazolidine-1,1,3-trione] | 10 to 100 | 1 to 10 | –
CC(C)CCOC1CCc2c(cc(O)c(N3CC(=O)NS3(=O)=O)c2F)C1 (stereo not drawn) [Compound 314, 5-[1-fluoro-3-hydroxy-6-(3-methylbutoxy)-5,6,7,8-tetrahydronaphthalen-2-yl]-1λ^6,2,5-thiadiazolidine-1,1,3-trione] | > 100 | 10 to 100 | –
O=C1CN(c2c(O)cc3c(c2F)CCC(OCC2CC2)C3)S(=O)(=O)N1 (stereo not drawn) [Compound 310, 5-[6-(cyclopropylmethoxy)-1-fluoro-3-hydroxy-5,6,7,8-tetrahydronaphthalen-2-yl]-1λ^6,2,5-thiadiazolidine-1,1,3-trione] | 10 to 100 | 10 to 100 | –
O=C1CN(c2c(O)cc3c(c2F)CC(NCCOC(F)(F)F)CC3)S(=O)(=O)N1 (stereo not drawn) [Compound 169, 5-(1-fluoro-3-hydroxy-7-{[2-(trifluoromethoxy)ethyl]amino}-5,6,7,8-tetrahydronaphthalen-2-yl)-1λ^6,2,5-thiadiazolidine-1,1,3-trione] | – | 10 to 100 | 10000 to 100000
